In patent US9765035B2 (priority 2013, dated 2017) one finds EC30 and IC50 data, which are given here for 19 compounds.

Structures are written as SMILES. Read-outs that look alike come from different tables or passages of the source.

For assay [1], the system named is RKO cells, mono-methyl arginine. As to the kind of experiment: RKO Methylation Assay (In Cell Western for mono-methyl arginine). The assay is classed as cell-based. To be noted: Homo sapiens. The source says: RKO adherent cells were purchased from ATCC (American Type Culture Collection), Manassas, Va., USA. DMEM/Glutamax medium, penicillin-streptomycin, heat inactivated fetal bovine serum, 0.05% trypsin and D-PBS were purchased from Life Technologies, Grand Island, N.Y., USA. Odyssey blocking buffer, 800CW goat anti-rabbit IgG (H+L) antibody, and Licor Odyssey infrared scanner were purchased from Licor Biosciences, Lincoln, Nebr., USA. Mono-methyl arginine antibody was purchased from Cell Signaling Technology, Danvers, Mass., USA. Methanol was purchased from VWR, Franklin, Mass., USA. 10% Tween 20 was purchased from KPL, Inc., Gaithersburg, Md., USA. DRAQ5 was purchased from Biostatus Limited, Leicestershire, UK.
RKO adherent cells were maintained in growth medium (DMEM/Glutamax medium supplemented with 10% v/v heat inactivated fetal bovine serum and 100 units/mL penicillin-streptomycin) and cultured at 37° C. under 5% CO2.
Cell Treatment, in Cell Western (ICW) for Detection of Mono-Methyl Arginine and DNA Content. […] Compound (100 nL) from a 96-well source plate was added directly to 384 well cell plate. Plates were incubated at 37° C., 5% CO2 for 72 hours. After three days of incubation, plates were brought to room temperature outside of the incubator for ten minutes and blotted on paper towels to remove cell media. 50 μL of ice cold 100% methanol was added directly to each well and incubated for 30 min at room temperature. After 30 min, plates were transferred to a Biotek EL406 plate washer and washed 2 times with 100 μL per well of wash buffer (1×PBS). Next 60 μL per well of Odyssey blocking buffer (Odyssey Buffer with 0.1% Tween 20 (v/v)) were added to each plate and incubated 1 hour at room temperature. Blocking buffer was removed and 20 μL per well of primary antibody was added (mono-methyl arginine diluted 1:200 in Odyssey buffer with 0.1% Tween 20 (v/v)) and plates were incubated overnight (16 hours) at 4° C. Plates were washed 5 times with 100 μL per well of wash buffer. […] The plates were washed 5 times with 100 μL per well wash buffer then 2 times with 100 μL per well of water. Plates were allowed to dry at room temperature then imaged on the Licor Odyssey machine which measures integrated intensity at 700 nm and 800 nm wavelengths. Both 700 and 800 channels were scanned.
Calculations: First, the ratio for each well was determined by:
Each plate included fourteen control wells of DMSO only treatment (minimum activation) as well as fourteen control wells for maximum activation treated with 20 μM of a reference compound. The average of the ratio values for each control type was calculated and used to determine the percent activation for each test well in the plate. Reference compound was serially diluted three-fold in DMSO for a total of nine test concentrations, beginning at 20 μM. Percent activation was determined and EC30 curves were generated using triplicate wells per concentration of compound.

Another assay addresses human PRMT8 (Homo sapiens, UniProt Q9NR22). As to the kind of experiment: biochemical. The source says:
General Materials. S-adenosylmethionine (SAM), S-adenosylhomocysteine (SAH), bicine, Tween20, dimethylsulfoxide (DMSO), bovine skin gelatin (BSG), isopropyl-β-D-thiogalactopyranoside (IPTG), and Tris(2-carboxyethyl)phosphine hydrochloride solution (TCEP) were purchased from Sigma-Aldrich at the highest level of purity possible. ^3H-SAM was purchase from American Radiolabeled Chemicals with a specific activity of 80 Ci/mmol. 384-well streptavidin Flashplates were purchased from PerkinElmer.
Substrates. Peptide representative of human histone H4 residues 31-45 was synthesized with an N-terminal linker-affinity tag motif and a C-terminal amide cap by 21st Century Biochemicals. The peptide was purified by high-performance liquid chromatography (HPLC) to greater than 95% purity and confirmed by liquid chromatography mass spectrometry (LC-MS). The sequence was Biot-Ahx-[…]-amide (SEQ ID NO.:8).
The resulting construct encodes an N-terminal GST tag and a thrombin cleavage sequence
Protein Expression. E. coli (BL21(DE3) Gold, Stratagene) made competent by the CaCl2 method were transformed with the PRMT8 construct and ampicillin selection. Protein over-expression was accomplished by growing the PRMT8 expressing E. coli clone and inducing expression with 0.3 mM IPTG at 16° C. The culture was grown for 12 hours, harvested by centrifugation, and stored at −80° C. for purification.
Protein Purification. […] GST-tagged PRMT8 was eluted with 50 mM Tris, 2 mM glutathione, pH 7.8. Pooled fractions were cleaved by thrombin (10 U) and dialysed in buffer A. GST was removed by reloading the cleaved protein sample onto glutathione sepharose column and PRMT8 was collected in the flow-through fractions. PRMT8 was purified further by ceramic hydroxyapatite chromatography. The column was washed with 50 mM phosphate buffer, 100 mM NaCl, 5% glycerol, 5 mM β-mercaptoethanol, pH 7.8 and PRMT8 was eluted by 100 mM phosphate in the same buffer. Protein was concentrated and buffer was exchanged to 50 mM Tris, 300 mM NaCl, 10% glycerol, 5 mM β-mercaptoethanol, pH 7.8 by ultrafiltration. The purity of recovered protein was 89%.
General Procedure for PRMT8 Enzyme Assays on Peptide Substrates. The assays were all performed in a buffer consisting of 20 mM Bicine (pH=7.6), 1 mM TCEP, 0.005% BSG, and 0.002% Tween 20, prepared on the day of use. Compounds in 100% DMSO (1 ul) were spotted into a polypropylene 384-well V-bottom plates (Greiner) using a Platemate Plus outfitted with a 384-channel head (Thermo Scientific). DMSO (1 ul) was added to Columns 11, 12, 23, 24, rows A-H for the maximum signal control and 1 ul of SAH, a known product and inhibitor of PRMT8, was added to columns 11, 12, 23, 24, rows I-P for the minimum signal control. A cocktail (40 ul) containing the PRMT8 enzyme was added by Multidrop Combi (Thermo-Fisher). The compounds were allowed to incubate with PRMT8 for 30 min at room temperature, then a cocktail (10 ul) containing ^3H-SAM and peptide was added to initiate the reaction (final volume=51 ul). The final concentrations of the components were as follows: PRMT8 was 1.5 nM, ^3H-SAM was 50 nM, non-radiolabeled SAM was 550 nM, peptide was 150 nM, SAH in the minimum signal control wells was 1 mM, and the DMSO concentration was 2%. The assays were stopped by the addition of non-radiolabeled SAM (10 ul) to a final concentration of 400 uM, which dilutes the ^3H-SAM to a level where its incorporation into the peptide substrate is no longer detectable. 50 ul of the reaction in the 384-well polypropylene plate was then transferred to a 384-well Flashplate and the biotinylated peptides were allowed to bind to the streptavidin surface for at least 1 hour before being washed once with 0.1% Tween20 in a Biotek EL×405 plate washer. […]

Where [2] appears, read: In Cell Western EC30, RKO cells, 72 hours, single experiment or average of multiple experiments, read-out: RGG ICW.
The mark [3] stands for this setting: In Cell Western, RKO cells, 72 hours, read-out: RGG ICW EC30.
[4] abbreviates: biochemical evaluation, peptide substrate, read-out: PRMT8 IC50.
The mark [5] stands for this setting: single experiment or average of multiple experiments, read-out: PRMT8 biochemical evaluation (numerical).

Sequence of human PRMT8 (Q9NR22 whole entry): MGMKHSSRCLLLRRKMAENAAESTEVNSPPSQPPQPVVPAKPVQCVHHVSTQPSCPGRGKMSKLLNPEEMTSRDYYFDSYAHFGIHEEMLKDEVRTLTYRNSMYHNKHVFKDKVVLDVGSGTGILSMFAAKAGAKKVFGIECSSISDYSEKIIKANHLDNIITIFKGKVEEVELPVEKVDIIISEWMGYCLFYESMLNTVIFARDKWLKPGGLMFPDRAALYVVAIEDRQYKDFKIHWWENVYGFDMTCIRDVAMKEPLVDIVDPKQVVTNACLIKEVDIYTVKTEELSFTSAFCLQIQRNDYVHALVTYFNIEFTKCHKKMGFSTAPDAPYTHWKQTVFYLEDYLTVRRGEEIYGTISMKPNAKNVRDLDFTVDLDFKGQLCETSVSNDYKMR

With `CN(CCN)Cc1n[nH]c2ccc(OCc3ccccc3)cc12` [Compound 1B], the values for the EC30 in assay [1] (setting [2]) and in assay [1] (setting [3]) were 1710 nM and < 3000 nM, respectively. Also, the IC50 at human PRMT8 (setting [4]) was 101 to 1000 nM; on human PRMT8 (setting [5]) it was 267 nM.

As for `CC(C)COc1ccc2[nH]nc(CN(C)CCN)c2c1` [Compound 2, N1-((5-iso-butoxy-1H-indazol-3-yl)methyl)-N1-methylethane-1,2-diamine], the EC30 in assay [1] (setting [2]) is 4210 nM; in assay [1] (setting [3]) it was 3010 to 12000 nM. Further, the IC50 at human PRMT8 (setting [4]) is 101 to 1000 nM; at human PRMT8 (setting [5]) it was 458 nM.

Turning to `CNCCN(C)Cc1n[nH]c2ccc(OCC(C)c3ccccc3)cc12` (centres unmarked) [Compound 19], the EC30 in assay [1] (setting [2]) was 680 nM; in assay [1] (setting [3]) it was < 3000 nM. Further, the IC50 at human PRMT8 (setting [4]) is < 100 nM.

`CNCCN(C)Cc1n[nH]c2ccc(OCc3ccn(C)n3)cc12` [Compound 20]: the EC30 in assay [1] (RKO, 72 h, read-out: RGG ICW) was 710 nM; in assay [1] (RKO, 72 h, read-out: RGG ICW EC30), < 3000 nM. For the same compound, the IC50 at human PRMT8 (setting [4]) was < 100 nM.

As for `CNCCN(C)Cc1n[nH]c2cccc(OCc3ccccc3)c12` [Compound 21], the EC30 in assay [1] (setting [2]) is 912 nM; in assay [1] (setting [3]), < 3000 nM. Further, the IC50 at human PRMT8 (setting [4]) is < 100 nM; on human PRMT8 (setting [5]), 67.5 nM.

On to `CNCCN(C)Cc1n[nH]c2ccc(Oc3cccc(OC)c3)cc12` [Compound 22], for which the EC30 in assay [1] (setting [2]) was 1490 nM; in assay [1] (setting [3]), < 3000 nM. The IC50 at human PRMT8 (setting [5]) came to 80.2 nM.

In the case of `CNCCN(C)Cc1n[nH]c2ccc(OCc3ccc(C(C)=O)cc3)cc12` [Compound 23], the values for the EC30 in assay [1] (setting [2]) and in assay [1] (setting [3]) were 1760 nM and < 3000 nM, respectively. In addition, the IC50 on human PRMT8 (setting [5]) is 42.8 nM.

`CNCCN(C)Cc1n[nH]c2cccc(OCCC(C)C)c12` [Compound 31]: the EC30 in assay [1] (setting [2]) is 8240 nM; in assay [1] (setting [3]), 3010 to 12000 nM. At human PRMT8 (setting [4]), the IC50 lay within 101 to 1000 nM.

Take `CNCCN(C)Cc1n[nH]c2ccc(OCc3ccn(CC(C)C)n3)cc12` [Compound 33]: the EC30 in assay [1] (setting [2]) is 9060 nM; in assay [1] (setting [3]), 3010 to 12000 nM. The IC50 was 1010 to 3000 nM at human PRMT8 (setting [4]) and 273 nM at human PRMT8 (setting [5]).

Regarding `CNCCN(C)Cc1n[nH]c2ccc(OC)cc12` [Compound 35], the EC30 in assay [1] (setting [2]) is > 20000 nM; in assay [1] (setting [3]) it was > 12000 nM. Moreover, the IC50 at human PRMT8 (setting [5]) was 1860 nM.

On to `CNCCN(C)Cc1n[nH]c2ccc(C(C)C)cc12` [Compound 42, N^1-((5-isopropyl-1H-indazol-3-yl)methyl)-N^1,N^2-dimethylethane-1,2-diamine], for which the IC50 on human PRMT8 (setting [4]) was 101 to 1000 nM; at human PRMT8 (setting [5]) it was 2850 nM.

For the compound `CNCCN(C)Cc1n[nH]c2ccc(N3CCC4(CCCCC4)CC3)cc12` [Compound 43, N^1-((5-(3-azaspiro[5.5]undecan-3-yl)-1H-indazol-3-yl)methyl)-N^1,N^2-dimethylethane-1,2-diamine], the IC50 is 101 to 1000 nM at human PRMT8 (setting [4]) and 2000 nM on human PRMT8 (setting [5]).

As for `CNCCN(C)Cc1n[nH]c2ccc(C3CCOCC3)cc12` [Compound 44, N^1,N^2-dimethyl-N^1-((5-(tetrahydro-2H-pyran-4-yl)-1H-indazol-3-yl)methyl)ethane-1,2-diamine], the IC50 was < 100 nM at human PRMT8 (setting [4]) and 236 nM at human PRMT8 (setting [5]).

With `CNCCN(C)Cc1n[nH]c2ccc(C3=CCOCC3)cc12` [Compound 45], the IC50 is < 100 nM at human PRMT8 (setting [4]) and 133 nM at human PRMT8 (setting [5]).

In the case of `CNCCN(C)Cc1n[nH]c2ccc(N3CCCCC3)cc12` [Compound 46, N^1,N^2-dimethyl-N^1-((5-(piperidin-1-yl)-1H-indazol-3-yl)methyl)ethane-1,2-diamine], the IC50 on human PRMT8 (setting [4]) was < 100 nM; at human PRMT8 (setting [5]), 98.8 nM.

Turning to `CNCCN(C)Cc1n[nH]c2ccc(C3CCCCC3)cc12` [Compound 47, N^1-((5-cyclohexyl-1H-indazol-3-yl)methyl)-N^1,N^2-dimethylethane-1,2-diamine], the IC50 was ≤ 100 nM on human PRMT8 (setting [4]) and 91.8 nM on human PRMT8 (setting [5]).

As to `CNCCN(C)Cc1n[nH]c2ccc(C3=CCCCC3)cc12` [Compound 48], the IC50 at human PRMT8 (setting [4]) was ≤ 100 nM; on human PRMT8 (setting [5]) it was 83.4 nM.

As to `CNCCN(C)Cc1n[nH]c2ccc(Oc3ccccc3C(F)(F)F)cc12` [Compound 49], the IC50 on human PRMT8 (setting [5]) is 45.4 nM.

Regarding `CNCCN(C)Cc1n[nH]c2ccc(OCC3CCOCC3)cc12` [Compound 50], at human PRMT8 (setting [5]), the IC50 is 38.7 nM.
